From patent US20070219767A1, “ATOMIC COORDINATES OF ALBUMIN DRUG COMPLEXES AND METHOD OF USE OF PHARMACEUTICAL DEVELOPMENT” (priority 2003, published 2007)
Entries after “also recorded” stand apart in the source; their conditions may differ.

Molecular target: T1, human serum albumin (Homo sapiens, UniProt P02768)
Assay: not given
Details: prior knowledge on non-drugs such as gases; cited from earlier work

T1 sequence (P02768 25-609): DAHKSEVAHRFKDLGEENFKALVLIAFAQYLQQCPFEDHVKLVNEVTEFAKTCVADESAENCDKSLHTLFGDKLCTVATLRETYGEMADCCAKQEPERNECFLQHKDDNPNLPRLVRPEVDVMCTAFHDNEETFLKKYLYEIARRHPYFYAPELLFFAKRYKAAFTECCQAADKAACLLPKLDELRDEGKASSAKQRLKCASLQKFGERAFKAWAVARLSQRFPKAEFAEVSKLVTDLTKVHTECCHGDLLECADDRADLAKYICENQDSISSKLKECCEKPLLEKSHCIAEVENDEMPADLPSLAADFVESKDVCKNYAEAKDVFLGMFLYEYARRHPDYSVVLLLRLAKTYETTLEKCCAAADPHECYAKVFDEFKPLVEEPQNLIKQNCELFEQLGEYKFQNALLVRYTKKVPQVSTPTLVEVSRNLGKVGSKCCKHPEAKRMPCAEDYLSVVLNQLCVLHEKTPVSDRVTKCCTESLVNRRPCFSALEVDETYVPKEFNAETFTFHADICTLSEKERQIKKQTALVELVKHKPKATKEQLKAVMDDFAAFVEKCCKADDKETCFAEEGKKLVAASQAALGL

| Compound | HSA site with binding affinity, previously known |
| --- | --- |
| FC(F)(F)C(Cl)Br (stereo not shown) [halothane] | IIA-IIB |

Molecular target: T1, human serum albumin
Assay: X-ray crystallography of human serum albumin/drug complexes: binding location
Design: Domain I (1 through 192); Domain II (193 through 395);Domain III (396 THROUGH 585)
Details: not given
Text: This information was derived from crystallization of the protein/ligand to create a protein/ligand complex and determining the atomic structure of the resulting complex by x-ray diffraction. The ligand may be any ligand capable of binding to the human serum albumin protein, and is preferably a ligand that binds to one of the binding sites described herein.
One method of obtaining information regarding the structural; characteristics of the albumin binding regions is through protein crystallization processes.
By applying standard crystallization protocols to the above described crystallizable compositions, crystals of the human serum albumin complex may be obtained. This, an even further aspect of this invention relates to a method of preparing human serum albumin complex-containing crystals. The method comprises the steps of • (a) obtaining a crystallizable composition comprising a human serum albumin protein, divalent cations, and a ligand capable of binding to the protein, and • (b) subjecting the composition of step (a) to conditions which promote crystallization.
The “active site binding pockets” or “active site” of human serum albumin refers to one of several areas determined experimentally on the human serum albumin protein surface where substrates bind.

| Compound | Binding site of the Drug-Albumin Complex (site heading the list of contacting residues) |
| --- | --- |
| Cc1noc(NS(=O)(=O)c2ccc(N)cc2)c1C [Sulfisoxazole] | Site IB, L115, V116, R117, P118, M123, Y138, I142, Y161, L182, |

Same assay, conditions: Table I, Phase I; subdomain of HSA where the drug is found in the crystal complex

| Compound | Albumin Binding Location |
| --- | --- |
| CC(NC(C)(C)C)C(=O)c1cccc(Cl)c1 (stereo not shown) [Bupropion] | IIA, IIIA |
| CCCNC(=O)NS(=O)(=O)c1ccc(Cl)cc1 [Chlorpropamide] | IIA, IIIA |
| CCCCC(=O)O[C@H]1CC[C@H]2[C@@H]3CCc4cc(O)ccc4[C@H]3CC[C@]12C [Estradiol Valerate] | IIA |
| CC[C@H](C)C(=O)O[C@H]1C[C@@H](C)C=C2C=C[C@H](C)[C@H](CC[C@@H]3C[C@@H](O)CC(=O)O3)[C@H]21 [Lovastatin] | IIA |
| CN1C(CCl)Nc2cc(Cl)c(S(N)(=O)=O)cc2S1(=O)=O (stereo not shown) [Methayclothiazide] | IIA-IIB |
| CCc1nn(CCCN2CCN(c3cccc(Cl)c3)CC2)c(=O)n1CCOc1ccccc1 [Nefazodone] | IIIA |
| CC1(C)S[C@@H]2[C@H](NC(=O)COc3ccccc3)C(=O)N2[C@H]1C(=O)O [Penicillin V] | IIA |
| O=C1NC(=O)C(c2ccccc2)(c2ccccc2)N1 [Phenytoin] | IIA |
| C[C@]12C=CC(=O)C=C1CC[C@@H]1[C@@H]2C(=O)C[C@@]2(C)[C@H]1CC[C@]2(O)C(=O)CO [Prednisone] | IIA |
| CN(C/C=C/C#CC(C)(C)C)Cc1cccc2ccccc12 [Terbinafine] | IIIA |
| CC1=C(/C=C/C(C)=C/C=C/C(C)=C/C(=O)O)C(C)(C)CCC1 [Tertinoin] | IIIA |

Same assay, conditions: Table II, Phase II; refined coordinates; listed residues within 5 Å of bound ligand

| Compound | Binding site of the Drug-Albumin Complex (site heading the list of contacting residues) |
| --- | --- |
| COc1ccc2cc(CC(=O)O)ccc2c1 [6-MNA] | Site IB, R114, L115, R117, M123, L135, Y138, L139, I142, H146,; also recorded: Site IIA-IIBR209, A210, A213, W214, D324, L327, G328, L331,; also recorded: Site IIIA, L387, I388, N391, C392, F403, L407, R410, Y411, K414, |
| CC[C@@]1(O)C(=O)OCc2c1cc1n(c2=O)Cc2cc3c([N+](=O)[O-])cccc3nc2-1 [9 Nitro-Camptothecin] | Site IB, L115, V116, R117, Y138, I142, H146, F149, L154, F157, |
| CC(=O)Oc1ccccc1C(=O)O [Aspirin] | Site IIIB, F509, I513, R521, K524, K525, A528, M548, F551, A552, |
| O=C(O)CCNC(=O)c1ccc(/N=N/c2ccc(O)c(C(=O)O)c2)cc1 [Balsalazide] | Site IIA-IIIB, S401, K402, N405, A406, L407, V409, R410, K413, |
| CC[C@@]1(O)C(=O)OCc2c1cc1n(c2=O)Cc2cc3ccccc3nc2-1 [Camptothecin] | Site IB, L115, V116, R117, M123, Y138, I142, H146, F149, L154, |
| CCOc1nc2cccc(C(=O)OC(C)OC(=O)OC3CCCCC3)c2n1Cc1ccc(-c2ccccc2-c2nn[nH]n2)cc1 (stereo not shown) [Candesartan Cilexitil] | Site II-III, K195, L198, K199, S202, L203, F206, G207, A210, F211,; also recorded: Site IIIA, P384, L387, I388, N391, C392, F395, F403, L407, Y411,; also recorded: Site IIIA-IIIB, L398, Y401, K402, N405, A406, V409, R410, L529, |
| COc1ccccc1OCCNCC(O)COc1cccc2[nH]c3ccccc3c12 (stereo not shown) [Carvedilol] | Site IIIA, P384, L387, I388, N391, F403, L407, R410, Y411, K414, |
| CCc1cccc2c3c([nH]c12)C(CC)(CC(=O)O)OCC3 (stereo not shown) [Etodolac] | Site IB, L115, Y138, E141, I142, R145, H146, Y161, L182, L185,; also recorded: Site IIIA, P384, L387, I388, N391, F403, L407, R410, Y411, K414, |
| CC(C(=O)O)c1ccc(-c2ccccc2)c(F)c1 (stereo not shown) [Flurbiprofen] | Site IIIA, L387, I388, N391, C392, F395, F403, L407, R410, Y411, |
| Cc1ccc(C)c(OCCCC(C)(C)C(=O)O)c1 [Gemfrirozil] | Site IB, L115, V116, R117, F134, L135, Y138, L139, I142, R145,; also recorded: Site IIIA, L387, R410, Y411, K414, V415, V418, L423, V426, S427, |
| COc1ccc(Cl)cc1C(=O)NCCc1ccc(S(=O)(=O)NC(=O)NC2CCCCC2)cc1 [Glyburide] | Site IB, L115, V116, R117, P118, M123, A126, F134, K137, Y138, |
| CC(=O)[C@]1(O)Cc2c(O)c3c(c(O)c2[C@@H](O[C@H]2C[C@H](N)[C@H](O)[C@H](C)O2)C1)C(=O)c1ccccc1C3=O [Idarubicin] | Site IB, F036, F037, L115, V116, R117, P118, V122, M123, A126, |
| O=C(c1ccccc1)c1ccc2n1CCC2C(=O)O (stereo not shown) [Ketorolac] | Site IB, L115, R117, Y138, I142, H146, F157, Y161, L182, D183,; also recorded: Site IIIA, L387, I388, N391, C392, F403, L407, R410, Y411, K414, |
| Cc1ccc(Cl)c(Nc2ccccc2C(=O)O)c1Cl [Meclofenamic Acid] | Site IIIA, P384, L387, I388, N391, C392, F403, L407, R410, Y411, |
| Cc1cccc(Nc2ccccc2C(=O)O)c1C [Mefenamic Acid] | Site IIIA, E383, P384, L387, N391, C392, F403, L407, R410, Y411, |
| O=C(O)CCc1nc(-c2ccccc2)c(-c2ccccc2)o1 [Oxaprozin] | Site IIIA, P384, L387, I388, N391, C392, F403, L407, R410, Y411, |
| CC1(C)S[C@@H]2[C@H](NC(=O)Cc3ccccc3)C(=O)N2[C@H]1C(=O)O [Penecillin G] | Site IIA, Y150, K195, K199, F211, W214, A215, R218, L219, R222, |
| CN1C(C(=O)Nc2ccccn2)=C(O)c2ccccc2S1(=O)=O [Piroxicam] | Site IIA, K195, Q196, L198, K199, F211, W214, A215, R218, L219, |
| CC(CN1c2ccccc2Sc2ccccc21)N(C)C (stereo not shown) [Promethazine] | Site IIB, D308, F309, N318, E321, A322, V325, F326, N329 |
| CCC(=O)O[C@](Cc1ccccc1)(c1ccccc1)[C@H](C)CN(C)C [Propoxyphene] | Site IIIB, F502, F507, F509, A528, E531, L532, H535, V547, D550, |
| O=C(c1ccccc1)c1ccc2n1CC[C@H]2C(=O)O [R-Ketorolac] | Site IB, R117, Y138, I142, H146, F149, L154, F157, Y161, L182, |
| Cc1nc2n(c(=O)c1CCN1CCC(c3noc4cc(F)ccc34)CC1)CCCC2 [Risperidone] | Site IIIA, L387, I388, N391, C392, F403, L407, R410, Y411, K414, |
| CCc1cccc2c3c([nH]c12)[C@](CC)(CC(=O)O)OCC3 [S-Etodolac] | Site IIIA, P384, L387, I388, N391, F403, L407, R410, Y411, K414, |
| O=C(c1ccccc1)c1ccc2n1CC[C@@H]2C(=O)O [S-Ketorolac] | Site IIIB, F507, F509, I513, L516, R521, K524, K525, A528, L532, |
| O=C(Oc1ccccc1C(=O)O)c1ccccc1O [Salsalate] | Site IIIB, F509, I513, R521, K524, K525, A528, M548, F551, A552, |
| CC1(C)S[C@@H]2[C@H](NC(=O)C(c3ccccc3)S(=O)(=O)O)C(=O)N2[C@H]1C(=O)O (stereo partly shown) [Sulbenicillin] | Site IIA, Y150, K195, K199, W214, R218, L219, R222, L238, H242, |
| CCCc1nc2c(C)cc(-c3nc4ccccc4n3C)cc2n1Cc1ccc(-c2ccccc2C(=O)O)cc1 [Telmisartan] | Site IB, L115, V116, R117, P118, M123, F134, K137, Y138, E141, |
| COc1cc([C@@H]2c3cc4c(cc3[C@@H](O[C@@H]3O[C@@H]5CO[C@@H](c6cccs6)O[C@H]5[C@H](O)[C@H]3O)[C@H]3COC(=O)[C@H]23)OCO4)cc(OC)c1O [Teniposide] | Site IB, L115, V116, R117, P118, A126, F134, K137, Y138, E141, |
| COc1cc(C(=O)NS(=O)(=O)c2ccccc2C)ccc1Cc1cn(C)c2ccc(NC(=O)OC3CCCC3)cc12 [Zafirlukast] | Site IIA, Y150, E153, K195, L198, K199, S202, F211, W214, A215, |
| Hemin | Site IB, R114, L115, V116, R117, P118, M123, F134, L135, Y138, |
